In patent US6001815A, “Depsipeptides containing N-substituted glycine residue” (Nisshin Flour Milling Co., Ltd., priority 1997, dated 1999):
Where a SMILES comes first, the peptide text is derived from it. [ ]: non-standard residue; d: D form. The star is where a group is joined. Fmoc = O=C(OCC1c2ccccc2-c2ccccc21)*; X1 = CCCCCCCCCCCC(CC(=O)O)O*; NBuGly = CCCCNCC(=O)O

System: apolipoprotein E production in Hep G2 cells
Experiment: Productivity of apolipoprotein E in Hep G2 cells, determined by enzyme immunoassay
Format: cell-based, human
Details: Hep G2 culture supernatant, methanol control defined as 100
Protocol: It will be shown below that the depsipeptides of the invention may influence upon the productivity of apolipoprotein E in Hep G2 cells, together with the test procedure as used.
First, Hep G2 cells of 1×10^5 cells were suspended in Dulbecco's modified Eagle medium (manufactured by Nissui Seiyaku Co., Ltd.; hereinafter referred to as "D-MEM medium") containing 10% fetal bovine serum and 1 ml each of the suspension was poured into a 24-well tissue culture plate. The cells were cultivated at 37° C. under atmosphere of a mixed gas composed of 5% carbon dioxide and 95% air. […]
It was again washed three times with 300 μl of PBS, 50 μl of the above sample solution (the medium for Hep G2 cells) was added and the mixture was allowed to stand at room temperature for 2 hours. […] The reaction was quenched by the addition of 100 μl of 2N sulfuric acid and absorbance was measured at 490 nm using absorbance at 650 nm as a control. An amount of apolipoprotein E in the present depsipeptide was determined upon the calibration curve drawn up when a commercially available apolipoprotein E (Chemicon Co., Ltd., U.S.A.) was used as a standard.
In the Test Example, the same procedure as described above was carried out except that methanol alone was added instead of the methanolic solution of the depsipeptide of this invention and an apolipoprotein E amount was measured as a control. […]

## CCCCCCCCCCCC(CC(=O)O)OC(=O)CN(CCCC)C(=O)CN(CCCC)C(=O)[C@H](CC(=O)O)NC(=O)[C@@H](NC(=O)OCC1c2ccccc2-c2ccccc21)C(C)C (some centres unmarked) [Compound 2] (Fmoc-VD[NBuGly][NBuGly]-X1)
Conc. 1 μM
  Relative amount of apolipoprotein E (%): 256%
Conc. 5 μM
  Relative amount of apolipoprotein E (%): 389%
